# Data reported in patent US20260207720A1, “COMPOSITIONS AND METHODS FOR TREATING FUNGAL INFECTIONS” (MUCPharm Pty Ltd, priority 2022, published 2026).
# Like-named read-outs stand apart in the source and are kept apart here.
# Experiments:
# Format in all cases: cell-based
# Rhizopus arrhizus = assay: Chequerboard broth microdilution antifungal susceptibility testing (MIC)
# Method: (§1) Unless otherwise described, fungal cultures were grown on potato dextrose agar plates at 35° C. until mature (appearance of conidia) and used to prepare suspensions in sterile water. […] These suspensions were then added in equal volume to solutions containing the candidate species described above and incubated at 35° C. for 24 hr. Plates were then analysed for fungal growth inhibition and MIC values determined. […] [MICA (combined)/MICA]+[MICB (combined)/MICB] MICA (combined) is the MIC of drug A when both drugs (i.e. drug A and drug B) are present and MICA is the MIC of drug A used in isolation. Similarly, MICB (combined) is the MIC of drug B when both drugs are present and MICB is the MIC of drug B used in isolation.
# Rhizopus microsporus = assay: as above
# Method: as §1
# [1] = tested on: Candida Krusei (ATCC strain 6258); assay: Broth dilution susceptibility test, MIC and percent growth (Example 6)
# Method: A. Preparation of inoculum: • 1. Candida glabrata was grown on Sabouraud dextrose agar (SDA) at 37° C. for 24-48 hrs. • 2. Following this, 5 colonies of 1 mm diameter were picked and suspended in 5 mL sterile saline (0.9% saline) and vortexed for 15 seconds. • 3. Working suspension is prepared as a 1:100 dilution from stock suspension with RPMI 1640 culture medium. • 4. The cell density is adjusted with a spectrophotometer to the transmittance produced by a 0.5 McFarland standard (0.08 to 0.1) OD at 625 nm wavelength.
# • 1. For Bromelain, a stock concentration of 1 mg/ml Bromelain solution was prepared in RPMI media and diluted to test concentrations of 62.4, 31.2, 15.6 and 7.8 μg/ml in RPMI 1640 media. • 2. Acetylcysteine stock concentration is 200 mg/ml, diluted to 40, 20, 10, and 5 mg/ml concentrations in RPMI 1640 medium. • 3. These concentrations are prepared at 2× of the required concentrations in the final assay plate.
# Antifungal stock concentrations are as follows— • 1. Amphotericin B, Stock concentration: 250 μg/ml in water. • 2. Posaconazole, Original concentration: 300 mg in 16.7 ml, Working stock concentration: 1 mg/ml in DMSO. • 3. Fluconazole, Original concentration: 100 mg in 50 ml, Working stock concentration: 1 mg/ml in DMSO. • 4. The final concentration was prepared in RPMI 1640 media and concentrations range was 0.01-0.5 μg/mL for amphotericin B, 0.01-2 μg/mL for posaconazole and 0.01-64 μg/mL for fluconazole. • 5. These concentrations were prepared at 2× of the required concentrations in the final assay plate.
# • 1. Wells of the 96-well plates were inoculated with appropriate concentrations and volumes of drugs. • 2. Sterility control and growth controls are included in each plate. • 3. Each 96-well plate (except the control wells) contains 100 μL of double strength (twice the final antifungal drug) concentrations. • 4. 100 μL of the fungal suspension is added to 96-well plates (except the sterility control wells). • 5. The growth control wells contained 100 μL of sterile drug-free medium and 100 μL of inoculum suspension, while the sterility control wells contained 200 μl of sterile drug-free medium. • 6. Plates are then incubated at 37° C. and read at 625,430, and 530 nm wavelengths. • 7. Data from 24 hours and absorbance at 625 nm were used for analysis.
# These experiments were conducted to determine the effect of BromAc alone and in combination with existing antifungal drugs against Candida Krusei (ATCC strain 6258).
# The method used in these experiments is essentially the same as that described above in Example 5.
# Aspergillus = assay: Susceptibility assay of antifungals with BromAc (Example 4); settings: antifungal in combination with BromAc (5 mg/ml Acetylcysteine+12.5 μg/ml Bromelain) vs alone
# Method: (§2) The in vitro antifungal properties of Bromelain, Acetylcysteine, BromAc, Amphotericin B, Isavuconazole, Fluconazole and Posaconazole were determined using a broth microdilution method in round bottom 96 well plates in accordance with standard procedures defined by the Clinical Laboratory Standards Institute (CLSI).
# (§3) Unless otherwise described, fungal cultures were grown on potato dextrose agar plates at 35° C. until mature (appearance of conidia) and used to prepare suspensions in sterile water. Suspensions were diluted in RPMI 1:60. These suspensions were then added in equal volume to solutions containing the candidate species described above and incubated at 35° C. for 24 hr. Plates were then analysed for fungal growth inhibition and MIC values determined.
# (§4) BromAc (5 mg/ml Acetylcysteine+12.5 μg/ml Bromelain) was used in combination with Amphotericin B, Isavuconazole, Posaconazole and Fluconazole. The MIC values of these four antifungal agents against the fungus described below were calculated and compared with their corresponding MIC values in the presence of BromAc, using the standard susceptibility assays described above.
# (§5) The fungal strains set out in Table 2, all of which were sourced from a range of clinical isolates from Australian hospitals, were used in these experiments to gain a further understanding of the efficacy of BromAc in combination with Amphotericin B, Isavuconazole, Posaconazole and Fluconazole.
# Candida kruseii = assay: as above; settings: antifungal in combination with BromAc (5 mg/ml Acetylcysteine+12.5 μg/ml Bromelain) vs alone
# Method: as §2, §3, §4, §5
# Candida parapslosis = assay: as above
# Method: as §2, §3, §4, §5
# Candida tropicalis = assay: as above
# Method: as §2, §3, §4, §5
# Cunninghamella = assay: as above
# Method: as §2, §3, §4, §5
# Licthemia = assay: as above; settings: antifungal in combination with BromAc (5 mg/ml Acetylcysteine+12.5 μg/ml Bromelain) vs alone
# Method: as §2, §3, §4, §5
# Lomentospora = assay: as above; settings: antifungal in combination with BromAc (5 mg/ml Acetylcysteine+12.5 μg/ml Bromelain) vs alone
# Method: as §2, §3, §4, §5
# Scedosporium = assay: as above; settings: antifungal in combination with BromAc (5 mg/ml Acetylcysteine+12.5 μg/ml Bromelain) vs alone
# Method: as §2, §3, §4, §5
# [2] = antifungal in combination with BromAc (5 mg/ml Acetylcysteine+12.5 μg/ml Bromelain) vs alone
smiles,measurement,setting,value
CC[C@@H]([C@H](C)O)n1ncn(-c2ccc(N3CCN(c4ccc(OC[C@@H]5CO[C@@](Cn6cncn6)(c6ccc(F)cc6F)C5)cc4)CC3)cc2)c1=O [Posaconazole],isolates with 10× increase,"Rhizopus arrhizus; Rhizopus Arrhizus, antifungal with BromAc",7 of 8
same,MIC,"Rhizopus arrhizus; Rhizopus arrhizus, Rhizopus arrhizus (80-21-015-4777), drug alone, read-out: MIC",0.5 µg/mL
same,MIC,"Rhizopus arrhizus; Rhizopus arrhizus, eight R. arrhizus strains, read-out: MIC, average over the strains",0.8 µg/mL
same,MIC,"Rhizopus arrhizus; Rhizopus arrhizus, isolate R. archizus 1, BromAc at constant concentration where combined, read-out: MIC",1 µg/mL
same,MIC,"Rhizopus arrhizus; Rhizopus arrhizus, isolate R. archizus 2, BromAc at constant concentration where combined, read-out: MIC",1 µg/mL
same,MIC,"Rhizopus arrhizus; Rhizopus arrhizus, isolate R. archizus 3, BromAc at constant concentration where combined, read-out: MIC",0.25 µg/mL
same,MIC,"Rhizopus arrhizus; Rhizopus arrhizus, isolate R. archizus 8, BromAc at constant concentration where combined, read-out: MIC",0.25 µg/mL
same,MIC,"Rhizopus arrhizus; Rhizopus arrhizus, isolate R. arrhizus 4, BromAc at constant concentration where combined, read-out: MIC",0.25 µg/mL
same,MIC,"Rhizopus arrhizus; Rhizopus arrhizus, isolate R. arrhizus 5, BromAc at constant concentration where combined, read-out: MIC",0.25 µg/mL
same,MIC,"Rhizopus arrhizus; Rhizopus arrhizus, isolate R. arrhizus 6, BromAc at constant concentration where combined, read-out: MIC",0.5 µg/mL
same,MIC,"Rhizopus arrhizus; Rhizopus arrhizus, isolate R. arrhizus 7, BromAc at constant concentration where combined, read-out: MIC",0.25 µg/mL
same,Observed inhibitory effect,"Rhizopus arrhizus; Rhizopus arrhizus, antifungal in combination with BromAc (5 mg/ml Acetylcysteine+12.5 μg/ml Bromelain) vs alone",Strong (Strong = 5-10x (or greater) inhibitory effect)
same,"MICs, range over the strains",Rhizopus arrhizus; eight R. arrhizus strains,0.25 to 1 µg/mL
same,isolates with more than 10× increase,"Rhizopus microsporus; Rhizopus microspores, antifungal with BromAc",9 of 10
same,MIC,"Rhizopus microsporus; Rhizopus microsporus, Rhizopus microsporus (80-21-006-5340), drug alone, read-out: MIC",1 µg/mL
same,MIC,"Rhizopus microsporus; Rhizopus microsporus, eight R. microsporus strains, read-out: MIC, average over the strains",0.5 µg/mL
same,MIC,"Rhizopus microsporus; Rhizopus microsporus, isolate R. microsporus 1, BromAc at constant concentration where combined, read-out: MIC",1 µg/mL
same,MIC,"Rhizopus microsporus; Rhizopus microsporus, isolate R. microsporus 2, BromAc at constant concentration where combined, read-out: MIC",1 µg/mL
same,MIC,"Rhizopus microsporus; Rhizopus microsporus, isolate R. microsporus 3, BromAc at constant concentration where combined, read-out: MIC",0.25 µg/mL
same,MIC,"Rhizopus microsporus; Rhizopus microsporus, isolate R. microsporus 4, BromAc at constant concentration where combined, read-out: MIC",0.25 µg/mL
same,MIC,"Rhizopus microsporus; Rhizopus microsporus, isolate R. microsporus 5, BromAc at constant concentration where combined, read-out: MIC",0.25 µg/mL
same,MIC,"Rhizopus microsporus; Rhizopus microsporus, isolate R. microsporus 6, BromAc at constant concentration where combined, read-out: MIC",0.25 µg/mL
same,MIC,"Rhizopus microsporus; Rhizopus microsporus, isolate R. microsporus 7, BromAc at constant concentration where combined, read-out: MIC",0.25 µg/mL
same,MIC,"Rhizopus microsporus; Rhizopus microsporus, isolate R. microsporus 8, BromAc at constant concentration where combined, read-out: MIC",0.25 µg/mL
same,Observed inhibitory effect,"Rhizopus microsporus; Rhizopus microsporus, antifungal in combination with BromAc (5 mg/ml Acetylcysteine+12.5 μg/ml Bromelain) vs alone",Strong (Strong = 5-10x (or greater) inhibitory effect)
same,"MICs, range over the strains",Rhizopus microsporus; eight R. microsporus strains,0.25 to 1 µg/mL
same,MIC,"[1]; Pichia kudriavzevii, ATCC6258, FIG. 10",1 µg/mL
same,inhibition at 1 µg/mL,"[1]; Pichia kudriavzevii, ATCC6258, Posaconazole 1 ug/ml, Fluconazole 32 μg/ml, read-out: activity (growth inhibition) at its MIC",> 50%
same,effect at lower doses / concentrations compared to GC (in words),[1]; below the MIC (Posaconazole 0.03 μg/ml),no significant inhibition
same,Observed inhibitory effect,Aspergillus,Moderate (Moderate = 1-5x inhibitory effect)
same,Observed inhibitory effect,Candida kruseii,Strong (Strong = 5-10x (or greater) inhibitory effect)
same,increase in sensitivity,"Candida parapslosis; Candida parapsilosis, antifungal with BromAc",more than 10 ×
same,Observed inhibitory effect,"Candida parapslosis; Candida parapslosis, antifungal in combination with BromAc (5 mg/ml Acetylcysteine+12.5 μg/ml Bromelain) vs alone",Strong (Strong = 5-10x (or greater) inhibitory effect)
same,Observed inhibitory effect,Candida tropicalis; [2],Strong (Strong = 5-10x (or greater) inhibitory effect)
same,isolates with more than a 10× increase in sensitivity,Candida tropicalis; antifungal with BromAc,4 of 5
same,Observed inhibitory effect,Cunninghamella; [2],Moderate (Moderate = 1-5x inhibitory effect)
same,interaction with BromAc (in words),Cunninghamella; antifungal with BromAc,some synergy
same,Observed inhibitory effect,Licthemia,Moderate (Moderate = 1-5x inhibitory effect)
same,Observed inhibitory effect,Lomentospora,No effect
same,Observed inhibitory effect,Scedosporium,Possible
